Test results published in paper PMC4935606 (Organic & biomolecular chemistry, 2016).

Assays:
[1] = Spontaneous conversion of 1 to 13 under the assay conditions; type: physicochemical; conditions: 90 min, in the presence or absence of DTT
[2] = Side-by-side LCMS/UV solution stability study; type: physicochemical; conditions: 0.1 mg/mL in DMSO/H2O (5:1), within 24 h
cells = conditions: ref 7b; cited from earlier work
tumor cell = conditions: cited from earlier work
recombinant human PTP4A3 = recombinant human PTP4A3 (Homo sapiens, UniProt O75365); test: In vitro PTP4A3 phosphatase inhibition assay with DiFMUP substrate; type: biochemical
Chain of recombinant human PTP4A3 (O75365 whole entry): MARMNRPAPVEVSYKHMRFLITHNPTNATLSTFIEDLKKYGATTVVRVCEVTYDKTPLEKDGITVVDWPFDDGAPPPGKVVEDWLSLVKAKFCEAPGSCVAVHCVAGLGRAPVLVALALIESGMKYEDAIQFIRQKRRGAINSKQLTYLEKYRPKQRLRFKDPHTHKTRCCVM

Spontaneous conversion of 1 to 13 [1]	Decomposition [2]	PTP4A3 inhibition (in words) (recombinant human PTP4A3; qualitative statement)	IC50 (recombinant human PTP4A3; read-out: IC50 [µM±S.D.], inhibition of PTP4A3 activity, n=3, DiFMUP 12 µM, 25 °C, 30 min, pH 7.0, 4 mM DTT)	Structure (SMILES)	Short-term cytotoxicity in cells (cells)	Inhibition of tumor cell anchorage-independent growth (tumor cell)
≤ 5%	> 80%	–	–	Nc1c[nH]c(=O)c2cc(-c3ccccc3)sc12 [Compound 1]	does not have any short-term cytotoxicity	Significant inhibition
–	–	remarkably less active than 1	> 80 µM	O=c1[nH]ccc2sc(-c3ccccc3)cc12 [Compound 12]	–	–
